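Growth conditions: 96-well plates. Treatment: test compound, 48 hours, 5 concentrations. Analysis: linear interpolation between bracketing concentrations; unreached endpoints set to highest concentration. At the GI50, growth is halved.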 Calls of active or inactive are those of the source. Rule as the data show it: active = GI50 up to about 1.1 µM and inactive = higher.
Assays:
Test in all cases: NCI-60 cell line screen, 48 h
OVCAR-5 = test system: OVCAR-5
NCI-H23 = test system: NCI-H23
OVCAR-3 = test system: OVCAR-3
HT-29 = test system: HT-29
A549 = test system: A549
PC-3 = test system: PC-3
SN12C = test system: SN12C
786-0 = test system: 786-0
HCT-15 = test system: HCT-15
NCI-H460 = test system: NCI-H460
MDA-MB-231 = test system: MDA-MB-231
NCI-H226 = test system: NCI-H226
DU-145 = test system: DU-145
HL-60 = test system: HL-60
SK-MEL-5 = test system: SK-MEL-5
RPMI-8226 = test system: RPMI-8226
CAKI-1 = test system: CAKI-1
HCT-116 = test system: HCT-116
SW-620 = test system: SW-620
UO-31 = test system: UO-31
MOLT-4 = test system: MOLT-4
MDA-N = test system: MDA-N
U-251 = test system: U-251
NCI-H522 = test system: NCI-H522
SNB-19 = test system: SNB-19
SK-MEL-2 = test system: SK-MEL-2
MDA-MB-435 = test system: MDA-MB-435
KM12 = test system: KM12
TK-10 = test system: TK-10
LOX IMVI = test system: LOX IMVI
EKVX = test system: EKVX
A498 = test system: A498
SK-OV-3 = test system: SK-OV-3
CCRF-CEM = test system: CCRF-CEM
OVCAR-8 = test system: OVCAR-8
SF-268 = test system: SF-268
Malme-3M = test system: Malme-3M
T47D = test system: T47D
BT-549 = test system: BT-549
SK-MEL-28 = test system: SK-MEL-28
UACC-257 = test system: UACC-257
SF-295 = test system: SF-295
UACC-62 = test system: UACC-62
IGROV-1 = test system: IGROV-1
COLO 205 = test system: COLO 205
M14 = test system: M14
SF-539 = test system: SF-539
HOP-62 = test system: HOP-62
SNB-75 = test system: SNB-75
NCI/ADR-RES = test system: NCI/ADR-RES
ACHN = test system: ACHN
RXF 393 = test system: RXF 393
K562 = test system: K562
HOP-92 = test system: HOP-92
Hs-578T = test system: Hs-578T

SMILES: CCSC1=N/C(=C\c2ccco2)C(NN)=N1
- GI50 (OVCAR-5): > 50 µM (inactive)
- GI50 (NCI-H23): > 50 µM (inactive)
- GI50 (OVCAR-3): > 50 µM (inactive)
- GI50 (HT-29): > 50 µM (inactive)
- GI50 (A549): > 50 µM (inactive)
- GI50 (PC-3): > 50 µM (inactive)
- GI50 (SN12C): > 50 µM (inactive)
- GI50 (786-0): > 50 µM (inactive)
- GI50 (HCT-15): > 50 µM
- GI50 (NCI-H460): > 50 µM (inactive)
- GI50 (MDA-MB-231): > 50 µM (inactive)
- GI50 (NCI-H226): > 50 µM (inactive)
- GI50 (DU-145): > 50 µM (inactive)
- GI50 (HL-60): > 50 µM (inactive)
- GI50 (SK-MEL-5): > 50 µM (inactive)
- GI50 (RPMI-8226): > 50 µM (inactive)
- GI50 (CAKI-1): > 50 µM (inactive)
- GI50 (HCT-116): > 50 µM (inactive)
- GI50 (SW-620): > 50 µM (inactive)
- GI50 (UO-31): > 50 µM (inactive)
- GI50 (MOLT-4): > 50 µM (inactive)
- GI50 (MDA-N): > 50 µM (inactive)
- GI50 (U-251): > 50 µM (inactive)
- GI50 (NCI-H522): > 50 µM (inactive)
- GI50 (SNB-19): > 50 µM (inactive)
- GI50 (SK-MEL-2): > 50 µM (inactive)
- GI50 (MDA-MB-435): > 50 µM (inactive)
- GI50 (KM12): > 50 µM (inactive)
- GI50 (TK-10): > 50 µM (inactive)
- GI50 (LOX IMVI): > 50 µM (inactive)
- GI50 (EKVX): > 50 µM (inactive)
- GI50 (A498): > 50 µM (inactive)
- GI50 (SK-OV-3): > 50 µM (inactive)
- GI50 (CCRF-CEM): > 50 µM (inactive)
- GI50 (OVCAR-8): > 50 µM (inactive)
- GI50 (SF-268): > 50 µM (inactive)
- GI50 (Malme-3M): > 50 µM (inactive)
- GI50 (T47D): > 50 µM (inactive)
- GI50 (BT-549): > 50 µM (inactive)
- GI50 (SK-MEL-28): > 50 µM (inactive)
- GI50 (UACC-257): > 50 µM (inactive)
- GI50 (SF-295): > 50 µM (inactive)
- GI50 (UACC-62): > 50 µM (inactive)
- GI50 (IGROV-1): > 50 µM (inactive)
- GI50 (COLO 205): > 50 µM (inactive)
- GI50 (M14): > 50 µM (inactive)
- GI50 (SF-539): > 50 µM (inactive)
- GI50 (HOP-62): > 50 µM (inactive)
- GI50 (SNB-75): > 50 µM (inactive)
- GI50 (NCI/ADR-RES): > 50 µM (inactive)
- GI50 (ACHN): > 50 µM (inactive)
- GI50 (RXF 393): > 50 µM (inactive)
- GI50 (K562): > 50 µM (inactive)
- GI50 (HOP-92): > 50 µM (inactive)
- GI50 (Hs-578T): > 50 µM (inactive)
